According to patent publication US20180186755A1, “LYSYL OXIDASE-LIKE 2 INHIBITORS AND USES THEREOF” (PharmAkea, Inc., priority 2015, published 2018):
Structures can show the parent of a compound that is named as a salt.

Target: T1, human LOXL2 (Homo sapiens, UniProt Q9Y4K0)
T1 construct: expressed in transfected cells; 10-20x concentrated conditioned media used as the enzyme source
T1 sequence (Q9Y4K0 26-774): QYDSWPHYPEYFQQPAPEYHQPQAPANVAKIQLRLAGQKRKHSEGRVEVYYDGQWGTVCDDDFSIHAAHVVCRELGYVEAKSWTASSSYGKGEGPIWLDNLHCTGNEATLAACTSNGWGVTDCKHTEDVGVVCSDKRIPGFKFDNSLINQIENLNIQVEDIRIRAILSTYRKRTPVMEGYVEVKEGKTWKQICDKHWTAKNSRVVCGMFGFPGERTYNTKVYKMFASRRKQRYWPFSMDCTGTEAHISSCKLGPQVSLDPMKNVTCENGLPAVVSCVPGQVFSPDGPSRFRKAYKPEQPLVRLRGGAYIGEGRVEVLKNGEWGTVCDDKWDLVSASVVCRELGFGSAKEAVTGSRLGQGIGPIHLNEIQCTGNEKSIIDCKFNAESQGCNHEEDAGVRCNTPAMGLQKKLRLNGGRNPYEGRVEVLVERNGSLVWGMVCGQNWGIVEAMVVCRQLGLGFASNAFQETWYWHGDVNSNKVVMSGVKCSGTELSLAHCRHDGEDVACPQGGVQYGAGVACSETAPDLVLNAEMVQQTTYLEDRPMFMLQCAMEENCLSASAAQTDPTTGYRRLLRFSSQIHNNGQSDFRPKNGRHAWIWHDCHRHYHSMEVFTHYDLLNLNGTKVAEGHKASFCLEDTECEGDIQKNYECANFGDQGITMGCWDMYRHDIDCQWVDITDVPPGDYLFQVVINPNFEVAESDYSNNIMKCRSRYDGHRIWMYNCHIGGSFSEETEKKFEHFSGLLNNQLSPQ
Assay: Human LOXL2 amine oxidase activity assay (Amplex Red fluorescence)
Assay type: biochemical
Conditions: concentrated conditioned media from CHO cells stably expressing human LOXL2; 2 h at 37° C. preincubation; DAP substrate
Method: Example B-1: Human LOXL2 Amine Oxidase Activity Assay
LOXL2 amine oxidase activity is evaluated by measuring Amplex Red fluorescence using 10-20× concentrated conditioned media from CHO cells stably expressing human LOXL2.
To assay for amine oxidase activity, 10 μL of the concentrated conditioned media is incubated with 2 μL of test compound in DMSO and 73 μL Assay Buffer (50 mM Borate Buffer, pH8) for 2 h at 37° C. After the 2 h incubation, 5 ul of 10 mM 1,5-Diaminopentane (DAP) diluted in Assay Buffer and 10 μl of Amplex Red Mix (8.5 μl Assay Buffer+0.5 μl of 10 mM Amplex Red+1 μl of 500 U/ml Horseradish Peroxidase) are added and the plate mixed and immediately placed on the FlexStaion for fluorescence measurements. Fluorescence is read in kinetic mode every 2 min for 1 hour at excitation=544 and emission=590. The amine oxidase activity is calculated from the slope of the linear portion of the curve.

| SMILES | IC50 |
| --- | --- |
| NCc1cc(Oc2cccc3c2CCC(=O)N3)ncn1 [Compound 1-101, 5-((6-(Aminomethyl)pyrimidin-4-yl)oxy)-3,4-dihydroquinolin-2(1H)-one] | < 100 nM |
| CC1(C)CCN(C(=O)c2cccc(Oc3cc(CN)ncn3)c2)CC1 [Compound 1-59, (3-((6-(Aminomethyl)pyrimidin-4-yl)oxy)phenyl)(4,4-dimethylpiperidin-1-yl)methanone] | < 100 nM |
| NCc1cc(OCc2cccc(C(=O)NCc3cc4cc(F)ccc4[nH]3)c2)ncn1 [Compound 1-85, 3-(((6-(Aminomethyl)pyrimidin-4-yl)oxy)methyl)-N-((5-fluoro-1H-indol-2-yl)methyl)benzamide] | < 100 nM |
| COC(=O)c1cccc(Cn2ccc3c(Oc4cc(CN)ncn4)cccc32)c1 [Compound 1-27, Methyl 3-((4-((6-(aminomethyl)pyrimidin-4-yl)oxy)-1H-indol-1-yl)methyl)benzoate] | < 100 nM |
| NCc1cc(OCc2cccc(C(=O)N3CCCC(O)(C(F)(F)F)C3)c2)ncn1 (racemic) [Compound 1-35, Racemic-(3-(((6-(aminomethyl)pyrimidin-4-yl)oxy)methyl)phenyl)(3-hydroxy-3-(trifluoromethyl)piperidin-1-yl)methanone] | < 100 nM |
| NCc1cc(OCc2cccc(C(=O)Nc3cccc(C(F)(F)F)c3)c2)ncn1 [Compound 1-77, 3-(((6-(Aminomethyl)pyrimidin-4-yl)oxy)methyl)-N-(3-(trifluoromethyl)phenyl)benzamide] | < 100 nM |
| NCc1cc(OCc2cccc(C(=O)N3CCc4c([nH]c5ncccc45)C3)c2)ncn1 [Compound 1-90, (3-(((6-(Aminomethyl)pyrimidin-4-yl)oxy)methyl)phenyl)(5H-pyrrolo[2,3-b:5,4-c′]dipyridin-7(6H,8H,9H)-yl)methanone] | < 100 nM |
| NCc1cc(Oc2cccc(C(=O)N3CCN(c4ncc(Cl)cc4Cl)CC3)c2)ncn1 [Compound 1-73, (3-((6-(Aminomethyl)pyrimidin-4-yl)oxy)phenyl)(4-(3,5-dichloropyridin-2-yl)piperazin-1-yl)methanone] | < 100 nM |
| NCc1cc(Oc2cccc(C(=O)NCc3ccc4ccccc4n3)c2)ncn1 [Compound 1-63, 3-((6-(Aminomethyl)pyrimidin-4-yl)oxy)-N-(quinolin-2-ylmethyl)benzamide] | < 100 nM |
| NCc1cc(NCc2cccc(C(=O)NCc3cc4ccccc4s3)c2)ncn1 [Compound 1-97, 3-(((6-(Aminomethyl)pyrimidin-4-yl)amino)methyl)-N-(benzo[b]thiophen-2-ylmethyl)benzamide] | < 100 nM |
| NCc1cc(OCc2cccc(C(=O)Nc3ccccc3)c2)ncn1 [Compound 1-40, 3-(((6-(Aminomethyl)pyrimidin-4-yl)oxy)methyl)-N-phenylbenzamide] | < 100 nM |
| NCc1cc(Oc2cccc(C(=O)N3CCc4cccnc4C3)c2)ncn1 [Compound 1-69, (3-((6-(Aminomethyl)pyrimidin-4-yl)oxy)phenyl)(5,6-dihydro-1,7-naphthyridin-7(8H)-yl)methanone] | < 100 nM |
| NCc1cc(Oc2cccc(C(=O)N3CCc4ccc(Cl)cc43)c2)ncn1 [Compound 1-50, (3-((6-(Aminomethyl)pyrimidin-4-yl)oxy)phenyl)(6-chloroindolin-1-yl)methanone] | < 100 nM |
| NCc1cc(Oc2cccc(C(=O)NCc3cccnc3)c2)ncn1 [Compound 1-54, 3-((6-(Aminomethyl)pyrimidin-4-yl)oxy)-N-(pyridin-3-ylmethyl)benzamide] | < 100 nM |
| CN1CC(CNC(=O)c2cccc(COc3cc(CN)ncn3)c2)OC1=O (racemic) [Compound 1-36, Racemic-3-(((6-(aminomethyl)pyrimidin-4-yl)oxy)methyl)-N-((3-methyl-2-oxooxazolidin-5-yl)methyl)benzamide] | < 100 nM |
| NCc1cc(Oc2cccc3c2ccn3CC(=O)O)ncn1 [Compound 1-22, 2-(4-((6-(Aminomethyl)pyrimidin-4-yl)oxy)-1H-indol-1-yl)acetic acid] | < 100 nM |
| COc1ccc(Cn2cc(C)c3c(Oc4cc(CN)ncn4)cccc32)cn1 [Compound 1-31, (6-((1-((6-Methoxypyridin-3-yl)methyl)-3-methyl-1H-indol-4-yl)oxy)pyrimidin-4-yl)methanamine] | < 100 nM |
| NCc1cc(Oc2cccc(C(=O)NCCO)c2)ncn1 [Compound 1-9, 3-((6-(Aminomethyl)pyrimidin-4-yl)oxy)-N-(2-hydroxyethyl)benzamide hydrochloride] | < 100 nM |

| SMILES | IC50 |
| --- | --- |
| NCc1cc(N2C(=O)CCc3c(OCc4ccccc4)cccc32)ncn1 [Compound 1-107, 1-(6-(Aminomethyl)pyrimidin-4-yl)-5-(benzyloxy)-3,4-dihydroquinolin-2(1H)-one] | < 100 nM |
| NCc1cc(Oc2cccc3c2ccn3Cc2ccccc2)ncn1 [Compound 1-26, (6-((1-Benzyl-1H-indol-4-yl)oxy)pyrimidin-4-yl)methanamine] | < 100 nM |
| NCc1cc(Oc2cccc3c2ccn3Cc2cccc(C(=O)O)c2)ncn1 [Compound 1-28, 3-((4-((6-(Aminomethyl)pyrimidin-4-yl)oxy)-1H-indol-1-yl)methyl)benzoic acid] | < 100 nM |
| NCc1cc(Oc2cccc(C(=O)N3CCc4ccncc43)c2)ncn1 [Compound 1-52, (3-((6-(Aminomethyl)pyrimidin-4-yl)oxy)phenyl)(2,3-dihydro-H-pyrrolo[2,3-c]pyridin-1-yl)methanone, hydrochloride] | < 100 nM |
| NCc1cc(-n2ccc3c(CO)cccc32)ncn1 [Compound 1-99, (1-(6-(Aminomethyl)pyrimidin-4-yl)-1H-indol-4-yl)methanol] | 100 to 1000 nM |
| CN(Cc1cccc(C(=O)Nc2ccccc2)c1)c1cc(CN)ncn1 [Compound 1-45, 3-(((6-(Aminomethyl)pyrimidin-4-yl)(methyl)amino)methyl)-N-phenylbenzamide] | 100 to 1000 nM |
| NCc1cc(OCc2cccc(C(=O)NCCn3cccn3)c2)ncn1 [Compound 1-39, N-(2-(1H-Pyrazol-1-yl)ethyl)-3-(((6-(aminomethyl)pyrimidin-4-yl)oxy)methyl)benzamide] | < 100 nM |
| NCc1cc(OCc2cccc(C(=O)NCc3cc4ccccc4[nH]3)c2)ncn1 [Compound 1-84, N-((1H-indol-2-yl)methyl)-3-(((6-(aminomethyl)pyrimidin-4-yl)oxy)methyl)benzamide] | < 100 nM |
| NCc1cc(Oc2cccc3[nH]ncc23)ncn1 [Compound 1-60, (6-((1H-Indazol-4-yl)oxy)pyrimidin-4-yl)methanamine] | < 100 nM |
| NCc1cc(Oc2cccc(C(=O)N3CCc4c([nH]c5ncccc45)C3)c2)ncn1 [Compound 1-71, (3-((6-(Aminomethyl)pyrimidin-4-yl)oxy)phenyl)(5H-pyrrolo[2,3-b:5,4-c′]dipyridin-7(6H,8H,9H)-yl)methanone] | < 100 nM |
| C#C[C@@H](CC(=O)OC)NC(=O)c1cccc(Oc2cc(CN)ncn2)c1 [Compound 1-76, (R)-Methyl 3-(3-((6-(aminomethyl)pyrimidin-4-yl)oxy)benzamido)pent-4-ynoate] | < 100 nM |
| NCc1cc(OCc2cccc(C(=O)N3CCc4cccnc43)c2)ncn1 [Compound 1-92, (3-(((6-(Aminomethyl)pyrimidin-4-yl)oxy)methyl)phenyl)(2,3-dihydro-1H-pyrrolo[2,3-b]pyridin-1-yl)methanone] | < 100 nM |
| NCc1cc(Oc2ccc3cc[nH]c3c2)ncn1 [Compound 1-17, (6-((1H-Indol-6-yl)oxy)pyrimidin-4-yl)methanamine] | < 100 nM |
| NCc1cc(Oc2cccc(C(=O)Nc3ccc(C(=O)O)cc3)c2)ncn1 [Compound 1-4, 4-(3-((6-(Aminomethyl)pyrimidin-4-yl)oxy)benzamido)benzoic acid hydrochloride] | < 100 nM |
| NCc1cc(OCc2cccc(C(=O)NCc3cc4cccnc4[nH]3)c2)ncn1 [Compound 1-87, N-((1H-pyrrolo[2,3-b]pyridin-2-yl)methyl)-3-(((6-(aminomethyl)pyrimidin-4-yl)oxy)methyl)benzamide] | < 100 nM |
| NCc1cc(Oc2cccc(C(=O)NCCCC(=O)O)c2)ncn1 [Compound 1-8, 4-(3-((6-(Aminomethyl)pyrimidin-4-yl)oxy)benzamido)butanoic Acid Hydrochloride] | 100 to 1000 nM |
| NCc1cc(OCc2cccc(C(=O)N3CCc4cccnc4C3)c2)ncn1 [Compound 1-88, (3-(((6-(Aminomethyl)pyrimidin-4-yl)oxy)methyl)phenyl)(5,6-dihydro-1,7-naphthyridin-7(8H)-yl)methanone] | < 100 nM |
